Laboratory results from patent US9113629B2, “4-amino-6-(4-substituted-phenyl)-picolinates and 6-amino-2-(4-substituted-phenyl)-pyrimidine-4-carboxylates and their use as herbicides” (DOW AGROSCIENCES LLC, priority 2013, dated 2015).
Where two headings read alike, the source gives them in different places.

Experiments:
[1] = test system: APESV: bentgrass (Apera spica-venti); experiment: Post-emergent Test III, herbicidal activity in wheat and barley; format: in vivo
Experimental: (§1) Post-emergent Test III. Seeds of the desired test plant species were planted in Sun Gro MetroMix® 306 planting mixture, which typically has a pH of 6.0 to 6.8 and an organic matter content of about 30 percent, in plastic pots with a surface area of 103.2 square centimeters (cm^2). When required to ensure good germination and healthy plants, a fungicide treatment and/or other chemical or physical treatment was applied. The plants were grown for 7-36 days (d) in a greenhouse with an approximate 14 hour (h) photoperiod which was maintained at about 18° C. during the day and 17° C. during the night. Nutrients and water were added on a regular basis and supplemental lighting was provided with overhead metal halide 1000-Watt lamps as necessary. The plants were employed for testing when they reached the second or third true leaf stage.
(§2) A weighed amount, determined by the highest rate to be tested, of each test compound was placed in a 25 mL glass vial and was dissolved in 4 mL of a 97:3 v/v mixture of acetone and DMSO to obtain concentrated stock solutions. […] The concentrated stock solutions obtained were diluted with 20 mL of an aqueous mixture containing acetone, water, isopropyl alcohol, DMSO, Agri-Dex crop oil concentrate, and X-77 surfactant in a 48:39:10:1.5:1.5:0.02 v/v ratio to obtain spray solutions containing the highest application rates. Additional application rates were obtained by serial dilution of 12 mL of the high rate solution into a solution containing 2 mL of 97:3 v/v mixture of acetone and DMSO and 10 mL of an aqueous mixture containing acetone, water, isopropyl alcohol, DMSO, Agri-Dex crop oil concentrate, and X-77 surfactant in a 48:39:10:1.5:1.5:0.02 v/v ratio to obtain ½×, ¼×, ⅛× and 1/16× rates of the high rate. Compound requirements are based upon a 12 mL application volume at a rate of 187 liters per hectare (L/ha). Formulated compounds were applied to the plant material with an overhead Mandel track sprayer equipped with 8002E nozzles calibrated to deliver 187 L/ha over an application area of 0.503 square meters at a spray height of 18 inches (43 cm) above the average plant canopy height. Control plants were sprayed in the same manner with the solvent blank.
(§3) The treated plants and control plants were placed in a greenhouse as described above and watered by subirrigation to prevent wash-off of the test compounds. After 21 d, the condition of the test plants as compared with that of the untreated plants was determined visually and scored on a scale of 0 to 100 percent where 0 corresponds to no injury and 100 corresponds to complete kill.
(§4) By applying the well-accepted probit analysis as described by J. Berkson in Journal of the American Statistical Society, 48, 565 (1953) and by D. Finney in “Probit Analysis” Cambridge University Press (1952), herbicidal injury of a specific compound at various rates can be used to calculate GR20, GR50, GR80 and GR90 values, which are defined as growth reduction factors that correspond to the effective dose of herbicide required to provide plant growth reduction (GR) of 20 percent, 50 percent, 80 percent and 90 percent, respectively. Probit analysis was applied to data collected from multiple dose rates of individual compounds utilizing the procedures explained in the following examples. The analysis of those dose rates is captured in the following tables.

[2] = test system: SETVI: green foxtail (Setaria viridis); experiment: as above; format: in vivo
Experimental: as §1, §2, §3, §4

[3] = test system: MATSS: scented mayweed (Matricaria chamomilla), pineappleweed (Matricaria matricarioides); experiment: as above; format: in vivo; conditions: for pest or weed control at 35 g/ha / pest or weed control at 70 g/ha / pest or weed control at 140 g/ha: Matricaria chamomilla, post-emergence, 504 h, read-out: Visual Growth Reduction (%) 21 Days After Application MATSS; for pest or weed control at 35 g/ha: 35 g ai/ha; for pest or weed control at 70 g/ha: 70 g ai/ha; for pest or weed control at 140 g/ha: 140 g ai/ha; for GR50 MATSS / GR80 MATSS: probit analysis
Experimental: as §1, §2, §3, §4

[4] = test system: HORSS: barley, including spring and winter (Hordeum vulgare); experiment: as above; format: in vivo; conditions: for pest or weed control at 35 g/ha / pest or weed control at 70 g/ha / pest or weed control at 140 g/ha: Hordeum vulgare, post-emergence, 504 h, read-out: Visual Growth Reduction (%) 21 Days After Application HORSS; for pest or weed control at 35 g/ha: 35 g ai/ha; for pest or weed control at 70 g/ha: 70 g ai/ha; for pest or weed control at 140 g/ha: 140 g ai/ha
Experimental: as §1, §2, §3, §4

[5] = as above; format: in vivo, Lolium multiflorum, Lolium rigidum; conditions: Lolium multiflorum, post-emergence, 504 h, read-out: Visual Growth Reduction (%) 21 Days After Application LOLSS
Experimental: as §1, §2, §3, §4

[6] = test system: KCHSC: kochia (Kochia scoparia); experiment: as above; format: in vivo; conditions: for pest or weed control at 35 g/ha / pest or weed control at 70 g/ha / pest or weed control at 140 g/ha: Bassia scoparia, post-emergence, 504 h, read-out: Visual Growth Reduction (%) 21 Days After Application KCHSC; for pest or weed control at 35 g/ha: 35 g ai/ha; for pest or weed control at 70 g/ha: 70 g ai/ha; for pest or weed control at 140 g/ha: 140 g ai/ha; for GR50 KCHSC / GR80 KCHSC: probit analysis
Experimental: as §1, §2, §3, §4

[7] = test system: TRZSS: wheat, including spring and winter (Triticum aestivum); experiment: as above; format: in vivo; conditions: for pest or weed control at 35 g/ha / pest or weed control at 70 g/ha / pest or weed control at 140 g/ha: Triticum aestivum, post-emergence, 504 h, read-out: Visual Growth Reduction (%) 21 Days After Application TRZSS; for pest or weed control at 35 g/ha: 35 g ai/ha; for pest or weed control at 70 g/ha: 70 g ai/ha; for pest or weed control at 140 g/ha: 140 g ai/ha
Experimental: as §1, §2, §3, §4

[8] = probit analysis, dose for growth reduction of 50 percent, 21 days after application
[9] = probit analysis, dose for growth reduction of 80 percent, 21 days after application
[10] = dose for growth reduction of 50 percent, 21 days after application
[11] = dose for growth reduction of 80 percent, 21 days after application
[12] = probit analysis, dose for growth reduction of 20 percent, 21 days after application, crop
[13] = Table 8, dose for 50 percent growth reduction, 21 d
[14] = Table 8, dose for 80 percent growth reduction, 21 d
[15] = Table 8, dose for 20 percent growth reduction, probit analysis, 21 d
[16] = Table 8, dose for 80 percent growth reduction, probit analysis, 21 d

## COC(=O)c1nc(-c2ccc(OC(F)F)cc2)c(F)c(N)c1Cl [Compound 85]
[1]; Apera spica-venti, post-emergence, 504 h, 35 g ai/ha, read-out: Visual Growth Reduction (%) 21 Days After Application APESV
  pest or weed control at 35 g/ha: 0 to 29%
[1]; Apera spica-venti, post-emergence, 504 h, 70 g ai/ha, read-out: Visual Growth Reduction (%) 21 Days After Application APESV
  pest or weed control at 70 g/ha: 0 to 29%
[1]; Apera spica-venti, post-emergence, 504 h, 140 g ai/ha, read-out: Visual Growth Reduction (%) 21 Days After Application APESV
  pest or weed control at 140 g/ha: 0 to 29%
[1]; [8]
  GR50 APESV: >140 g ai/ha
[1]; [9]
  GR80 APESV: >140 g ai/ha
[2]; Setaria viridis, post-emergence, 504 h, 35 g ai/ha, read-out: Visual Growth Reduction (%) 21 Days After Application SETVI
  pest or weed control at 35 g/ha: 0 to 29%
[2]; Setaria viridis, post-emergence, 504 h, 70 g ai/ha, read-out: Visual Growth Reduction (%) 21 Days After Application SETVI
  pest or weed control at 70 g/ha: 0 to 29%
[2]; Setaria viridis, post-emergence, 504 h, 140 g ai/ha, read-out: Visual Growth Reduction (%) 21 Days After Application SETVI
  pest or weed control at 140 g/ha: 0 to 29%
[2]; [8]
  GR50 SETVI: >140 g ai/ha
[2]; [9]
  GR80 SETVI: >140 g ai/ha
[3]
  pest or weed control at 35 g/ha: 0 to 29%
  pest or weed control at 70 g/ha: 0 to 29%
  pest or weed control at 140 g/ha: 0 to 29%
[3]; [10]
  GR50 MATSS: 88 g ai/ha
[3]; [11]
  GR80 MATSS: >140 g ai/ha
[4]
  pest or weed control at 35 g/ha: 0 to 29%
  pest or weed control at 70 g/ha: 30 to 44%
  pest or weed control at 140 g/ha: 60 to 74%
[4]; [12]
  GR20 HORSS: 33 g ai/ha
[5]; 35 g ai/ha
  pest or weed control at 35 g/ha: 0 to 29%
[5]; 70 g ai/ha
  pest or weed control at 70 g/ha: 0 to 29%
[5]; 140 g ai/ha
  pest or weed control at 140 g/ha: 0 to 29%
[6]
  pest or weed control at 35 g/ha: 0 to 29%
  pest or weed control at 70 g/ha: 0 to 29%
  pest or weed control at 140 g/ha: 0 to 29%
[6]; [10]
  GR50 KCHSC: >140 g ai/ha
[6]; [11]
  GR80 KCHSC: >140 g ai/ha
[7]
  pest or weed control at 35 g/ha: 60 to 74%
  pest or weed control at 70 g/ha: 60 to 74%
  pest or weed control at 140 g/ha: 60 to 74%
[7]; [12]
  GR20 TRZSS: 1 g ai/ha

## COC(=O)c1nc(-c2ccc(C#N)c(F)c2)c(F)c(N)c1Cl [Compound 135, methyl 4-amino-3-chloro-6-(4-cyano-3-fluorophenyl)-5-fluoropicolinate]
[3]; Table 8, post-emergent, 21 d
  pest or weed control at 35 g/ha: 30 to 44%
  pest or weed control at 70 g/ha: 30 to 44%
  pest or weed control at 140 g/ha: 45 to 59%
[3]; [13]
  GR50 MATSS: 125 g ai/ha
[3]; [14]
  GR80 MATSS: >140 g ai/ha
[4]; Table 8, post-emergent, 21 d
  pest or weed control at 35 g/ha: 0 to 29%
  pest or weed control at 70 g/ha: 30 to 44%
  pest or weed control at 140 g/ha: 60 to 74%
[4]; [15]
  GR20 HORSS: 37 g ai/ha
[4]; [16]
  GR80 HORSS: >140 g ai/ha
[6]; Table 8, post-emergent, 21 d
  pest or weed control at 35 g/ha: 75 to 84%
  pest or weed control at 70 g/ha: 75 to 84%
  pest or weed control at 140 g/ha: 75 to 84%
[6]; [13]
  GR50 KCHSC: 3 g ai/ha
[6]; [14]
  GR80 KCHSC: 130 g ai/ha
[7]; [15]
  GR20 TRZSS: 16 g ai/ha
[7]; [16]
  GR80 TRZSS: >140 g ai/ha
[7]; Table 8, post-emergent, 21 d
  pest or weed control at 35 g/ha: 30 to 44%
  pest or weed control at 70 g/ha: 30 to 44%
  pest or weed control at 140 g/ha: 45 to 59%

## Nc1c(Cl)c(C(=O)O)nc(-c2ccc(I)c(F)c2)c1Cl [Compound 145, 4-Amino-3,5-dichloro-6-(3-fluoro-4-iodophenyl)picolinic acid]
[3]; Table 8, post-emergent, 21 d
  pest or weed control at 35 g/ha: 95 to 100%
  pest or weed control at 70 g/ha: 95 to 100%
  pest or weed control at 140 g/ha: 95 to 100%
[3]; [13]
  GR50 MATSS: 3 g ai/ha
[3]; [14]
  GR80 MATSS: 10 g ai/ha
[4]; Table 8, post-emergent, 21 d
  pest or weed control at 35 g/ha: 85 to 94%
  pest or weed control at 70 g/ha: 95 to 100%
  pest or weed control at 140 g/ha: 95 to 100%
[4]; [15]
  GR20 HORSS: 1 g ai/ha
[6]; Table 8, post-emergent, 21 d
  pest or weed control at 35 g/ha: 60 to 74%
  pest or weed control at 70 g/ha: 60 to 74%
  pest or weed control at 140 g/ha: 75 to 84%
[6]; [13]
  GR50 KCHSC: 37 g ai/ha
[6]; [14]
  GR80 KCHSC: 112 g ai/ha
[7]; [15]
  GR20 TRZSS: 1 g ai/ha
[7]; Table 8, post-emergent, 21 d
  pest or weed control at 35 g/ha: 85 to 94%
  pest or weed control at 70 g/ha: 85 to 94%
  pest or weed control at 140 g/ha: 85 to 94%

## COC(=O)c1nc(-c2ccc(Br)c(F)c2)nc(N)c1OC [Compound 171, Methyl 6-amino-2-(4-bromo-3-fluorophenyl)-5-methoxypyrimidine-4-carboxylate]
[3]; Table 8, post-emergent, 21 d
  pest or weed control at 35 g/ha: 30 to 44%
  pest or weed control at 70 g/ha: 30 to 44%
[3]; [13]
  GR50 MATSS: >140 g ai/ha
[3]; [14]
  GR80 MATSS: >140 g ai/ha
[4]; Table 8, post-emergent, 21 d
  pest or weed control at 35 g/ha: 45 to 59%
  pest or weed control at 70 g/ha: 60 to 74%
[4]; [15]
  GR20 HORSS: 20 g ai/ha
[6]; Table 8, post-emergent, 21 d
  pest or weed control at 35 g/ha: 85 to 94%
  pest or weed control at 70 g/ha: 95 to 100%
[6]; [14]
  GR80 KCHSC: 23 g ai/ha
[7]; [15]
  GR20 TRZSS: 11 g ai/ha
[7]; Table 8, post-emergent, 21 d
  pest or weed control at 35 g/ha: 75 to 84%
  pest or weed control at 70 g/ha: 85 to 94%
